Holding throughout (format): cell-based, human
The test system of series [1] is THP-1 cells. Briefly: Viability of THP-1 cells treated with glycitein, optionally with LPS and IFN-γ (cell counting kit). As to conditions: 24 hours. How it is done:
THP-1 cells (acquired from Korean Cell Line Bank) were seeded onto a 96-well plate, with 3×10^4 cells per well, and cultured in an RPMI-1640 medium (acquired from Lonza) containing 10% (v/v) FBS, 100 U/mL penicillin and 100 μg/mL streptomycin under the condition of 37° C. and 5% CO2 for 24 hours. […] After treating with a cell counting kit reagent, with 1/10 the volume of each well, and culturing for 2 hours, O.D. value was measured using SpectraMax.

The test system of series [2] is TNF-α. Description: Production of TNF-α in THP-1 cells treated with glycitein and stimulants (TNF-α ELISA kit). The note with it: THP-1 cells, 0, 0.1, 1 and 10 μM glycitein, then 1 μg/mL LPS and 500 UNITs IFN-γ, FIG. 9. How it is done: THP-1 cells (acquired from Korean Cell Line Bank) were seeded onto a 6-well plate, with 5×10^5 cells per well, and treated with 0, 0.1, 1 and 10 μM glycitein. […] After culturing for 24 hours, the culture medium was centrifuged at 1000 rpm for 3 minutes and the supernatant was taken. The concentration of TNF-α in the culture medium was determined using a TNF-α ELISA kit.

A further series concerns inflammatory cytokines. Description: Production of inflammatory cytokines in THP-1 cells treated with glycitein and stimulants (cytokine array kit). The note with it: 10 μM glycitein, then 1 μg/mL LPS and 500 UNITs IFN-γ, FIG. 10. On the procedure:
THP-1 cells (acquired from Korean Cell Line Bank) were seeded onto a 6-well plate, with 5×10^5 cells per well, and treated with 10 μM glycitein. […] The cells untreated or treated only with the stimulant were used as a control group. The culture medium was centrifuged at 1000 rpm for 3 minutes and the supernatant was taken. The inflammatory cytokines included in the cell culture medium were identified using a cytokine array kit (R&D Systems).

The subject of a further series is MMP-1. Briefly: Production of MMP-1 in NHF cells treated with glycitein and stimulated THP-1 cell culture medium (MMP-1 assay kit). The note with it: NHF cells pretreated with 10 μM glycitein, then stimulated THP-1 culture medium, FIG. 12. How it is done:
THP-1 cells (acquired from Korean Cell Line Bank) were seeded onto a 6-well plate, with 5×10^5 cells per well, and cultured in an RPMI-1640 medium (acquired from Lonza) containing 10% (v/v) FBS, 100 U/mL penicillin and 100 μg/mL streptomycin under the condition of 37° C. and 5% CO2 for 24 hours. Also, NHF cells (acquired from Lonza) were seeded onto a 24-well plate, with 3×10^4 cells per well, and cultured in a DMEM medium (acquired from Lonza) containing 10% (v/v) FBS, 100 U/mL penicillin and 100 μg/mL streptomycin under the condition of 37° C. and 5% CO2 for 24 hours. […] The THP-1 cell culture medium was centrifuged at 1000 rpm for 3 minutes and the supernatant was taken. The NHF cells were treated with the supernatant. NHF cells treated with serum-free DMEM (acquired from Lonza) were used as an untreated group. After culturing for 24 hours, the concentration of MMP-1 in the NHF cells was measured using an MMP-1 assay kit and the ratio of the concentration of MMP-1 relative to the untreated group was calculated.

The subject of a further series is NHF cells. Briefly: Viability of NHF cells treated with glycitein and stimulants (cell counting kit). As to conditions: 0.1-10 μM glycitein together with 1 μg/mL LPS and 500 UNITs IFN-γ, 24 hours, FIG. 11. How it is done:
NHF cells (acquired from Lonza) were seeded onto a 96-well plate, with 1×10^4 cells per well, and cultured in a DMEM medium (acquired from Lonza) containing 10% (v/v) FBS, 100 U/mL penicillin and 100 μg/mL streptomycin under the condition of 37° C. and 5% CO2 for 24 hours. […] After treating with a cell counting kit reagent, with 1/10 the volume of each well, and culturing for 2 hours, then O.D. value was measured using SpectraMax.

The test system of series [3] is TNF-α. Description: Production of TNF-α in THP-1 cells treated with LPS and/or IFN-γ (TNF-α ELISA kit). As to conditions: IFN-γ alone, all concentrations (250, 500, 1000 UNITs), FIG. 1. How it is done:
THP-1 cells (acquired from Korean Cell Line Bank) were seeded onto a 6-well plate, with 5×10^5 cells per well, and cultured in an RPMI-1640 medium (acquired from Lonza) containing 10% (v/v) FBS, 100 U/mL penicillin and 100 μg/mL streptomycin under the condition of 37° C. and 5% CO2 for 24 hours. Subsequently, the cells were cultured for 24 hours after treating with three kinds of LPS derived from Escherichia coli (E. coli O111:B4, E. coli O55:B5 and E. coli EH100) and two kinds of LPS derived from Salmonella [Salmonella typhosa (S. typhosa) and Salmonella typhimurium (S. typhimurium), acquired from Sigma Aldrich], at concentrations of 0, 0.1 and 1 μg/mL, and with 0, 250, 500 and 1000 UNITs of INF-γ (acquired from Sigma Aldrich). Subsequently, the culture medium was centrifuged at 1000 rpm for 3 minutes and the supernatant was taken and then the concentration of TNF-α in the supernatant was determined using a TNF-α ELISA kit.

The test system of series [4] is THP-1 cells. Briefly: Viability of THP-1 cells treated with LPS and IFN-γ (cell counting kit). On the procedure:
THP-1 cells (acquired from Korean Cell Line Bank) were seeded onto a 96-well plate, with 3×10^4 cells per well, and cultured in an RPMI-1640 medium (acquired from Lonza) containing 10% (v/v) FBS, 100 U/mL penicillin and 100 μg/mL streptomycin under the condition of 37° C. and 5% CO2 for 24 hours. […] After treating with a cell counting kit reagent, with 1/10 the volume of each well, and culturing for 2 hours, cell viability was determined by measuring O.D. value using SpectraMax.

In the case of `COc1cc2c(=O)c(-c3ccc(O)cc3)coc2cc1O` [glycitein], the cytotoxicity entry is given as “no cytotoxicity” with THP-1 cells [1] (glycitein alone, 10 μM or lower, FIG. 7); “no cytotoxicity” in the series on THP-1 cells [1] (glycitein together with 1 μg/mL LPS and 500 UNITs IFN-γ, FIG. 8); “no cytotoxicity” with NHF cells. Besides, the “concentration of TNF-α” value in the series on TNF-α [2] is given as “lower as the concentration of glycitein increased”. Further, the “amount of the inflammatory cytokines produced upon treatment with the stimulant” value with inflammatory cytokines is given as “decreased”. The “production of MMP-1” value in the series with MMP-1 was “decreased production of MMP-1”.

B1: IFN-γ: interferon-γ acquired from Sigma Aldrich, enhances inflammatory stimulation by LPS (protein, UniProt P01579 24-161, looked up)
Interferon gamma: QDPYVKEAENLKKYFNAGHSDVADNGTLFLGILKNWKEESDRKIMQSQIVSFYFKLFKNFKDDQSIQKSVETIKEDMNVKFFNSNKKKRDDFEKLTNYSVTDLNVQRKAIHELIQVMAELSPAAKTGKRKRSQMLFRG
For B1, the “effect on the production of TNF-α” value in the series on TNF-α [3] was “no effect”. Moreover, the cytotoxicity entry with THP-1 cells [4] is recorded as “no cytotoxicity”.

The values are drawn from patent US9051596B2, “Method for screening inhibitory substances to inflammatory skin-aging” (AMOREPACIFIC CORPORATION, priority 2011, dated 2015).
